Test results: PMC11569205, “An allosteric inhibitor of RhoGAP class-IX myosins suppresses the metastatic features of cancer cells” (Nature Communications, 2024)
Where two headings read alike, the source gives them in different places.

Experiments:
Dd myosin-2 (DdMyo2) [1] = biological target: T1, Dd myosin-2 (DdMyo2) (Dictyostelium discoideum, UniProt P08799); assay: biochemical; set-up: binding affinity of compound to purified myosin (technique not given in the excerpts)
T1 construct: gene mhcA; motor domain
T1 sequence (P08799 2-762): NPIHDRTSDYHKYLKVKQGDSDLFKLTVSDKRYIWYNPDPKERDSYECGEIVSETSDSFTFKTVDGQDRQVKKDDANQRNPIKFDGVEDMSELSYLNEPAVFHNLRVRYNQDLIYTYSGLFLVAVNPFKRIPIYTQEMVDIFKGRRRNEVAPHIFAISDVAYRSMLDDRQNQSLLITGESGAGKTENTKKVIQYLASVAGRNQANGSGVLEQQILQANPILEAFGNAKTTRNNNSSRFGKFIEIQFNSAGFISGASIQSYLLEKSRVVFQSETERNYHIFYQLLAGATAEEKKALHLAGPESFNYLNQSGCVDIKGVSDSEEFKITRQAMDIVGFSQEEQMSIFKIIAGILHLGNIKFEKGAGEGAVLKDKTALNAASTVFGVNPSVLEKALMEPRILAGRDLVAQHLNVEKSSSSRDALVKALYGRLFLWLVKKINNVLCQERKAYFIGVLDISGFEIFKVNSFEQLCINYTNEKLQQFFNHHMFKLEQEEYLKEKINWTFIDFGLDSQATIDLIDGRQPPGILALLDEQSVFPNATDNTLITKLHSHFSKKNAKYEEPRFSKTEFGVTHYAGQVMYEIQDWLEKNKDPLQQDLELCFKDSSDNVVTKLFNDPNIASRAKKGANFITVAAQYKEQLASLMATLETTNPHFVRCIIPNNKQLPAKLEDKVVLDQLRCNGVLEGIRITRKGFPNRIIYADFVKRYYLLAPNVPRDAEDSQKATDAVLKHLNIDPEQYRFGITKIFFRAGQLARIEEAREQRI
From the text: (§1) Structural elements responsible for communicating conformational changes along the myosin ATPase cycle, such as the relay helix, the strut loop, and the W-helix, which form a central hub in the myosin motor domain for effective force production, flank the inhibitor binding site (Fig. 1K). The site buries a total protein surface area of 302.9 Å^2. This pocket is not visible in ligand-free DdMyo2 pre-power stroke structures and only formed by rearrangements of the side chains of residues S266 (β7-loop), E467 (relay helix), and K587 (strut) upon binding of the carbazole (Supplementary Fig. 1A). The aromatic carbazole moiety interacts primarily through hydrophobic contacts with F466 (relay helix) and V630 (W-helix), as well as cation-π interactions with K423 (O-helix) (Supplementary Fig. 1B). Four hydrogen bonds stabilize the inhibitor in its binding position: S465 (relay helix) and K587 (strut loop) interact with the hydroxy group of the ligand, and S465 (relay helix) and the main chain of E487 (relay helix) bind to the nitrogen of the carbazole framework. […] Rabbit fast skeletal muscle heavy meromyosin (skHMM) was prepared as described in ref. [129]. All other myosins were purified from native tissue or recombinant from the following organismal sources: D. discoideum (Dd), O. coniculus (Oc), S. scrofa (Ss), R. norvegicus (Rn), C. elegans (Ce), H. sapiens (Hs). Motor domain constructs of myosin-2, myosin-5a–5b, Ce myosin-9/Rn myosin-9b, were prepared as described previously in refs. [126],[130]–[135]. Hs nonmuscle myosin-2A (NM2a) was purified from SF9 cells using the baculovirus expression system as described in ref. [130] (for more information see Supplementary Table 5). F-actin was prepared according to the protocol by Lehrer and Kerwar[136].

DdMyo5b = biological target: T2, DdMyo5b (Dictyostelium discoideum, UniProt P54697); assay: biochemical; set-up: binding affinity of compound to purified myosin (technique not given in the excerpts)
T2 construct: gene myoJ; motor domain
From the text: as §1

Ce myosin-9 = biological target: T3, Ce myosin-9 (Caenorhabditis elegans, UniProt F0IWT2); assay: NADH-coupled basal and actin-activated ATPase assay; in vitro actin motility; format: biochemical
T3 construct: gene hum-7; motor domain construct
From the text: NADH-coupled basal and actin-activated ATPase assay; in vitro actin motility on Ce myosin-9 | Inhibitory effect of adhibin on Cemyosin-9 and Rnmyosin-9b basal and actin-activated ATPase activities.

Dd myosin-2 (DdMyo2) [2] = biological target: T1, Dd myosin-2 (DdMyo2); assay: biochemical; set-up: inhibition of myosin ATPase activity
From the text: (§2) We set out to identify a myosin class-IX specific inhibitor by screening an in-house compound library comprising halogenated pseudilins and carbazole derivatives, developed to target the ATPase activity of myosins[47],[48]. […] Low micromolar concentrations inhibited Myo9 motor function substantially, reducing sliding velocity and motile fraction of actin filaments in a reproducible and reversible manner (Fig. 1G, H). Importantly, the motor properties of other tested myosins remained unaffected (Fig. 1G). Rabbit fast skeletal muscle heavy meromyosin (skHMM) was prepared as described in ref. [129]. All other myosins were purified from native tissue or recombinant from the following organismal sources: D. discoideum (Dd), O. coniculus (Oc), S. scrofa (Ss), R. norvegicus (Rn), C. elegans (Ce), H. sapiens (Hs). Motor domain constructs of myosin-2, myosin-5a–5b, Ce myosin-9/Rn myosin-9b, were prepared as described previously in refs. [126],[130]–[135]. Hs nonmuscle myosin-2A (NM2a) was purified from SF9 cells using the baculovirus expression system as described in ref. [130] (for more information see Supplementary Table 5). F-actin was prepared according to the protocol by Lehrer and Kerwar[136].

Rn myosin-9b (Myo9b) [3] = biological target: T4, Rn myosin-9b (Myo9b) (Rattus norvegicus, UniProt Q63358); assay: NADH-coupled basal and actin-activated ATPase assay; format: biochemical
T4 construct: motor domain construct

Rn myosin-9b (Myo9b) [4] = biological target: T4, Rn myosin-9b (Myo9b); assay: biochemical; set-up: inhibition of myosin ATPase activity
From the text: as §2

T2 sequence (P54697 whole entry, the tested form may be a part): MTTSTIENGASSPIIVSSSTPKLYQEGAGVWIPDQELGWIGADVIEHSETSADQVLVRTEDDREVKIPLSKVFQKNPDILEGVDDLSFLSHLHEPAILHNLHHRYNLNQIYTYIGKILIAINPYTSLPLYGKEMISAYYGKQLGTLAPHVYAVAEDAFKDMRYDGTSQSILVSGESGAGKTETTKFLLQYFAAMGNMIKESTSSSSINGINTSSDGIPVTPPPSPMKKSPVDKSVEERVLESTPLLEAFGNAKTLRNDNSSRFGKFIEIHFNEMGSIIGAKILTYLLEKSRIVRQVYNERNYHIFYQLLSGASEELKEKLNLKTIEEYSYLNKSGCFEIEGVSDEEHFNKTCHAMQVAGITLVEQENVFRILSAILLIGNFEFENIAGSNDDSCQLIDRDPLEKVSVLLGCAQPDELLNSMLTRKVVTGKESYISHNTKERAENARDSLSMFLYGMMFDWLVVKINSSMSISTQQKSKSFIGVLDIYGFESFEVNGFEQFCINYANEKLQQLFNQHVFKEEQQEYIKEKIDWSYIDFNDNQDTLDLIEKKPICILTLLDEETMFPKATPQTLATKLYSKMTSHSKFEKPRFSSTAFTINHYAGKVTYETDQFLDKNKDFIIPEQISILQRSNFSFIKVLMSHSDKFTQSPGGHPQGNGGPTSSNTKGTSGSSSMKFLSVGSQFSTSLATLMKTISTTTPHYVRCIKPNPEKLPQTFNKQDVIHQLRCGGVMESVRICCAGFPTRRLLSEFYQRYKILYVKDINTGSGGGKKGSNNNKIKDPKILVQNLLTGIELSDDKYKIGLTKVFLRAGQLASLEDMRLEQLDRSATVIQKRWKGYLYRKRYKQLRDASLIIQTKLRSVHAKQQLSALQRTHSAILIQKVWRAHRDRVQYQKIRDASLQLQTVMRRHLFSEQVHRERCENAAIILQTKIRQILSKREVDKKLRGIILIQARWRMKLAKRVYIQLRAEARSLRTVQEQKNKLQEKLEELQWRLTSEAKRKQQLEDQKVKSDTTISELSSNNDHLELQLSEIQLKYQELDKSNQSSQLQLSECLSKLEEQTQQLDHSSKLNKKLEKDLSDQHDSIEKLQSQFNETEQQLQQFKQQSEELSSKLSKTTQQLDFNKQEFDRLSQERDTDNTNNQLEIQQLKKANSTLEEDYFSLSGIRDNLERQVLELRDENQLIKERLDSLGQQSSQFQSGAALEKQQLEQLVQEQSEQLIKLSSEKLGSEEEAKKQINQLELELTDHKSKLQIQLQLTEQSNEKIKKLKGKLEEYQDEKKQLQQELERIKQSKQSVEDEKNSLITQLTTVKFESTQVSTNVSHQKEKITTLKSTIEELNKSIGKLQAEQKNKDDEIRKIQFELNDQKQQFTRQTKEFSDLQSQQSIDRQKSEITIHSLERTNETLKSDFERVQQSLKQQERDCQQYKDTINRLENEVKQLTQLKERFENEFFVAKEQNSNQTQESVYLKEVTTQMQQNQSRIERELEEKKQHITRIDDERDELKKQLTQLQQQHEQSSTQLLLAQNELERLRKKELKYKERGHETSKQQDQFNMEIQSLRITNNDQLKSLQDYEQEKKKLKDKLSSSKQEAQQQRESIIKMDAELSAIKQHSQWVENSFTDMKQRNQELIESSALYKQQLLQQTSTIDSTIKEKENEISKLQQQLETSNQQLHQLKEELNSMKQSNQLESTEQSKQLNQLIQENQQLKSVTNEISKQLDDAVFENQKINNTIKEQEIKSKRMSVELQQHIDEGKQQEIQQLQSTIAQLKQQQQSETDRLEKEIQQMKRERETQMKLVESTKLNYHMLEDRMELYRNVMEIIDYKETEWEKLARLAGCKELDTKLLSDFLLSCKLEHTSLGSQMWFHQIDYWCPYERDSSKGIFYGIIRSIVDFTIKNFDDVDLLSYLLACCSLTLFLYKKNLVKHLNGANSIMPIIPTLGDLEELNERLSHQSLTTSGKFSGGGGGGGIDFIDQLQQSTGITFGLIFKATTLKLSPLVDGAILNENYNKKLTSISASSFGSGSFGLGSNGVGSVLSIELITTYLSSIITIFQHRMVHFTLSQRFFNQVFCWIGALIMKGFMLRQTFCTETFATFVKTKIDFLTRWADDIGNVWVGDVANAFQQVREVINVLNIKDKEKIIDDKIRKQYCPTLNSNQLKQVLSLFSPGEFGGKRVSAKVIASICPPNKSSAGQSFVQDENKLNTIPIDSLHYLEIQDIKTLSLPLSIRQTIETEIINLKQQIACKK
T4 sequence (Q63358 2-954): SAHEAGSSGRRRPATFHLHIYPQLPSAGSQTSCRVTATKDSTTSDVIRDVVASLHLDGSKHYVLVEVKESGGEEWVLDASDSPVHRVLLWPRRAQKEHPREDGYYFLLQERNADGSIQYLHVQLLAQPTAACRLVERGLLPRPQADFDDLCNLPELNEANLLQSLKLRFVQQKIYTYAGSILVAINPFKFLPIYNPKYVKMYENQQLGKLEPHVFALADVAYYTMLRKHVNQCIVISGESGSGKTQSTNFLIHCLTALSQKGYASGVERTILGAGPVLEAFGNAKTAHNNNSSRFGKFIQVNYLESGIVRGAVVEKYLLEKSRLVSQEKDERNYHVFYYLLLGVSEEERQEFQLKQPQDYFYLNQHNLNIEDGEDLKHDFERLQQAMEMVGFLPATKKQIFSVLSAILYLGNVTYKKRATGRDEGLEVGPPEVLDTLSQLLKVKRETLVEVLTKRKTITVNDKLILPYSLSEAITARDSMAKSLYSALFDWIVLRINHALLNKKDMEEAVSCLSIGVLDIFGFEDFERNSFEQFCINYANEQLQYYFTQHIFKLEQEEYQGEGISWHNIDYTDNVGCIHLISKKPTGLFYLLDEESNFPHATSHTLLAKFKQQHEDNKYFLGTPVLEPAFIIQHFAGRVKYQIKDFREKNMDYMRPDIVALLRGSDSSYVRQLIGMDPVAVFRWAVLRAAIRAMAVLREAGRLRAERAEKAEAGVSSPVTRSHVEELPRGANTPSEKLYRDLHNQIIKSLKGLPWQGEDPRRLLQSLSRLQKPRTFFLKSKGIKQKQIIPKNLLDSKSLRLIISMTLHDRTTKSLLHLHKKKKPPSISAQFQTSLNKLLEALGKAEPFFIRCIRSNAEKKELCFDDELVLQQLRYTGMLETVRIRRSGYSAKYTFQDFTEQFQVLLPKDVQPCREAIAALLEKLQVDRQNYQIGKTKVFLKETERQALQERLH
T3 sequence (F0IWT2 entry or part of it): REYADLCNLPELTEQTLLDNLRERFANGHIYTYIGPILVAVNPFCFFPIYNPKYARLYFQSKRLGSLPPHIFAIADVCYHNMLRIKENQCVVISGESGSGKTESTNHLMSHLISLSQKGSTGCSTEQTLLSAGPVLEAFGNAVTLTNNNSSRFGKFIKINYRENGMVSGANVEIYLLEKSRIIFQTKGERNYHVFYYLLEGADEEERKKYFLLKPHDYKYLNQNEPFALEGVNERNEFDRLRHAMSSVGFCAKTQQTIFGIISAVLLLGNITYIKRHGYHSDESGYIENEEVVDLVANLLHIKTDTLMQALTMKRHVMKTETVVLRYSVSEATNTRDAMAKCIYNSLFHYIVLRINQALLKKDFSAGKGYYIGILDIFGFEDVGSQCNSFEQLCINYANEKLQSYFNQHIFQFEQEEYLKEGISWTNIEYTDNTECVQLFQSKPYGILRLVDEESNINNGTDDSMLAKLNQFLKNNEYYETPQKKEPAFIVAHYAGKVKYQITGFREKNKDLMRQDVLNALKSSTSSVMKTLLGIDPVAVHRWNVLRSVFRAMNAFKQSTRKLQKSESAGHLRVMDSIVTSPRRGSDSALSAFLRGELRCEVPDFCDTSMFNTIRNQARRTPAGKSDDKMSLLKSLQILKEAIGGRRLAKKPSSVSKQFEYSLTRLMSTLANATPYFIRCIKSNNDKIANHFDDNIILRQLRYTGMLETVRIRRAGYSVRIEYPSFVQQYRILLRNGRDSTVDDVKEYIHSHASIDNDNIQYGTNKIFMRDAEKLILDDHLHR

| Kd (Dd myosin-2 (DdMyo2) [1]; read-out: KD) | Kd (DdMyo5b; read-out: KD) | IC50 (Ce myosin-9) | IC50 (Dd myosin-2 (DdMyo2) [2]; read-out: IC50) | IC50 (Rn myosin-9b (Myo9b) [3]) | Compound | Kd (Dd myosin-2 (DdMyo2) [1]) | Kd (DdMyo5b) | IC50 (Dd myosin-2 (DdMyo2) [2]) | IC50 (Rn myosin-9b (Myo9b) [4]) |
| --- | --- | --- | --- | --- | --- | --- | --- | --- | --- |
| 14.9 ± 3.2 µM | 1.5 ± 0.5 µM | 2.6 ± 0.2 µM | 37.7 ± 9.4 µM | 2.5 ± 0.2 µM | OCc1cc(Br)cc2c1[nH]c1ccc(Br)cc12 [compound 12, 3,6-dibromo-1-(hydroxymethyl)carbazole] | – | – | – | – |
| – | – | – | – | – | Cc1ccc2[nH]c3c(O)cc(Br)c(Br)c3c2c1 [compound 5, 3,4-dibromo-6-methyl-9H-carbazol-1-ol] | 7.3 ± 4.1 µM | 33.2 ± 5.2 µM | 22.6 ± 7.5 µM | 2 ± 0.3 µM |
